# From patent US20080063601A1, “Compositions and methods relating to polycystic kidney disease” (priority 2004, published 2008)
# Like-named read-outs stand apart in the source and are kept apart here.
# Key:
# Type in all cases: cell-based
# [1] = tested on: NFκB transactivation; assay: κB-luciferase reporter assay of TNF-α induced NFκB transactivation in HeLa cells; settings: for inhibition at 0.1 µM: Homo sapiens
# Description: Having established that triptolide induced cell death is dependent upon free calcium concentration, Applicant next determined whether this was also a requirement for the inhibition of NFκB transcription. HeLa cells were transiently transfected with the κB-luciferase reporter construct for 8 hours before being washed and then cultured in the presence or absence of calcium containing medium for 16 hours. Triptolide (100 nM) was pre-incubated with cells for 1 hour before addition of 15 ng/ml of TNF-α for 4 hours.
# As an additional experiment, transcriptional activity was also assessed by site-directed calcium buffering. HeLa cells were co-transfected with the κB-luciferase plasmid as well as one of the following constructs: GFP empty vector, NES-PV-GFP, or NLS-PV-GFP and proper GFP localization was confirmed. […]
# NFκB transactivation was examined using the κB-luciferase reporter construct. […] Cells were assessed for NFκB driven luciferase expression after an additional five hours of incubation, at which time TNF-α had induced transcriptional activity by approximately 15-fold in control cells. […] The results thus far support a divergence of triptolide-mediated functions: the pathway regulating growth arrest/death is more sensitive to triptolide and calcium than the mechanism leading to transcriptional repression of NFκB.
# A triple κB promoter-Luciferase reporter construct was a gift of Sankar Ghosh (Yale University). […] The transfection efficiency of HeLa was determined to be 80-90%, and all samples were normalized to protein concentration. Luciferase assays were performed using the Firefly luciferase kit as per manufacturer's protocol (Promega) and results obtained on the Wallac Victor2 1420 Multilabel Counter (Perkin Elmer).
# [2] = tested on: HeLa cells; assay: in vitro; settings: HeLa, 100 nM
# From the text: (§1) To investigate further the role of calcium in triptolide function Applicant utilized a system to buffer intracellular calcium levels. Various GFP-parvalbumin (PV) fusion proteins can be specifically localized to either the nucleus or the cytoplasm through a nuclear localization or exclusion signal (NLS or NES, respectively) (Pusl, et al., 2002, J Biol Chem 277, 27517-27527). Parvalbumin has two EF-hand calcium binding domains and can efficiently reduce the availability of free calcium in the cell (Pauls, et al., 1996, Biochim Biophys Acta 1306, 39-54). HeLa cells were transiently transfected with the GFP vector control, NES-PV-GFP, or NLS-PV-GFP in calcium containing media and efficient expression of each construct was determined by GFP localization (FIG. 6A). Normal cell growth was first assessed throughout 48 hours with each of the constructs. […] For triptolide experiments, cells were transfected and allowed to express the construct for 24 hours before the addition of 100 nM triptolide. After 24 and 48 hours of treatment, cells were assessed for viability. […] Since the parvalbumin buffering experiments are done in the presence of extracellular calcium, the cell can operate normally in that intracellular calcium stores may be refilled. It is reasonable to expect then if calcium homeostasis is being affected (i.e., cytosolic calcium levels increase) by triptolide, then parvalbumin would eventually reach a saturation point. This might explain why the rescue from apoptosis is transient through the 24 hour time point but is lost by 48 hours.
# (§2) All parvalbumin-GFP constructs and control vectors (Pusl, et al., 2002, J Biol Chem 277, 27517-27527) were a gift of Anton Bennett (Yale University). Hela cells were plated out on 6- or 12-well plates at a density of 5×10^5 or 1×10^5, respectively. […] Cell viability was assessed at 24 and 48 hours post triptolide addition by morphology and trypan blue dye exclusion.
# [3] = in vitro; settings: human
# From the text: as §1, §2
smiles,measurement,setting,value
CC(C)[C@]12O[C@H]1[C@@H]1O[C@]13[C@]1(O[C@H]1C[C@H]1C4=C(CC[C@@]13C)C(=O)OC4)[C@@H]2O [triptolide],inhibition of TNF-α driven transcriptional activity of NFκB,"[1]; 10 nM, 1 h pre-treatment + 5 h TNF-α",did not inhibit
same,luciferase induction remaining with compound + TNF-α,"[1]; 10 nM, after 24 hours",> 20 fold
same,inhibition of TNF-α driven transcriptional activity of NFκB,"[1]; 25 nM, 1 h pre-treatment + 5 h TNF-α",did not inhibit
same,suppression of TNF-α driven NFκB activity,"[1]; 50 nM, 1 h pre-treatment + 5 h TNF-α",20%
same,suppression of NFκB transactivation with site-directed calcium buffering,"[1]; 100 nM, GFP vector, NES-PV-GFP or NLS-PV-GFP",retained the ability to suppress NFκB transactivation
same,inhibition of TNF-α induced NFκB transactivation,"[1]; 100 nM, presence and absence of calcium",effectively inhibited
same,NFκB activity at higher concentration,"[1]; 1 or 10 μM, 5 hours with TNF-α",attenuated further
same,inhibition at 0.1 µM,"[1]; 0.1 μM, 5 hours with TNF-α, read-out: NFκB inhibition",> 60%
same,inhibition at 0.1 µM,"[1]; 100 nM, 1 h pre-treatment + 5 h TNF-α, read-out: inhibition of TNF-α driven NFκB activity (average)",60%
same,cell death in all transfection conditions,[2]; by 48 hours,complete cell death
same,apoptosis,"[2]; cytosolic parvalbumin (NES-PV-GFP), 24 hours",15-20%
same,"cytotoxicity at 24 h, 0.1 µM",[3],50%
